# Paper PMC8262356, “SLC26A6-selective inhibitor identified in a small-molecule screen blocks fluid absorption in small intestine” (JCI Insight, 2021)
# How the values were obtained:
# [1] = target: T1, slc26a4 (Mus musculus, UniProt Q9R155); assay: Selectivity: Cl-/I- exchange in FRT cells coexpressing YFP and slc26a4; assay type: cell-based; conditions: 25 μM
# T1 construct: expressed in transfected cells; host or cells: FRT cells coexpressing YFP
# T1 sequence (Q9R155 1-780): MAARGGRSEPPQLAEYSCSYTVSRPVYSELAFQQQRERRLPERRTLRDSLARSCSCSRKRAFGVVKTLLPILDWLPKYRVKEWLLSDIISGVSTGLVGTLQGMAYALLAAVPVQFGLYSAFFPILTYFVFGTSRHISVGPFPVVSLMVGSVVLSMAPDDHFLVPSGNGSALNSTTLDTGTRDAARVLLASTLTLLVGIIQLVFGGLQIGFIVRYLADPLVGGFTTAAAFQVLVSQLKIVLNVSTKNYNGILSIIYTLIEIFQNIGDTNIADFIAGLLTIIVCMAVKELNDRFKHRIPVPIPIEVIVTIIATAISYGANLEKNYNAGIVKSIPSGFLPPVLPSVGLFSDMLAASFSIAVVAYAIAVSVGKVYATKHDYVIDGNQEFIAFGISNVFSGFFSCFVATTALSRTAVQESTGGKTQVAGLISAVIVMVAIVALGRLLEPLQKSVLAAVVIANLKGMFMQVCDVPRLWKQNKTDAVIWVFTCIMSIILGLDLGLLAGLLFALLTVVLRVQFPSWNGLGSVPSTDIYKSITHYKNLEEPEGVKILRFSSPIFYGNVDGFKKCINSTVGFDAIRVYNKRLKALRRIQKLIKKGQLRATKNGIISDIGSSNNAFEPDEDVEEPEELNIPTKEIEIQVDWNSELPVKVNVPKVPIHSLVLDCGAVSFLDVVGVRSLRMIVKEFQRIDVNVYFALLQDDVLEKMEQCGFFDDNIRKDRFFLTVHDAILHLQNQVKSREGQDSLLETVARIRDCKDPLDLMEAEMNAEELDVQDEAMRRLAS
# Description: PAT1inh-B01 selectivity was studied by testing its effects on related SLC26A family anion transporters and the Cl^– channel TMEM16A. These measurements used a similar Cl^–/I^– exchange protocol, but FRT cells separately expressed each of the SLC26A family members or TMEM16A. […] PAT1inh-B01 selectivity was also tested by short-circuit current (Isc) in well-differentiated human bronchial epithelial (HBE) cells, which have a complex ion transport mechanism that includes cystic fibrosis transmembrane conductance regulator (CFTR), epithelial Na^+ channel (ENaC), and Ca^+2-activated chloride channels (CaCCs) ([13]). […] Potential PAT1inh-B01 cytotoxicity was studied in FRT cells.
# Figure 3 PAT1inh-B01 selectivity and cytotoxicity. […] Cl^–/I^– exchange or I^– influx measured in FRT cells coexpressing YFP and SLC26A isoforms or TMEM16A, with data shown for 25 μM PAT1inh-B01, DMSO vehicle control, and 500 μM niflumic acid (positive control for SLC26A transporters) or 10 μM TMinh-23 (positive control for TMEM16A). […] (C) (left) Short-circuit current (Isc) in well-differentiated HBE cells measured in the absence (top) and presence (bottom) of 25 μM PAT1inh-B01. […]
# YFP-based cellular assays of slc26a3, slc26a4, SLC26A9, and TMEM16A function were performed as described previously ([7]). […] The activities of ENaC, CFTR, and CaCC were determined using well-differentiated HBE cells as described previously ([13]). […]
# [2] = system: mouse ileal closed loops; assay: Closed ileal loop fluid absorption; assay type: in vivo
# Description: For fluid absorption studies in small intestine, mice were given free access to 5% dextrose in water but not solid food for 24 hours before experiments. Closed midjejunal and ileal loops were prepared and isolated as described previously ([29]). Mice were anesthetized with isoflurane, and body temperature was maintained during surgery at 36°C–38°C using a heating pad. A small abdominal incision was made to expose small intestine for isolation of 3–4 closed small intestinal loops (jejunum or ileum, length 2–3 cm) with sutures. Loops were injected with 100 μL PBS (pH 7.4, 137 mM NaCl, 2.7 mM KCl, 8 mM Na2HPO4, 1.8 mM KH2PO4, 1 mM CaCl2, 0.5 mM MgCl2) containing 30 μM PAT1inh-B01, 10 μM DRAinh-A270, or 10 μM tenapanor (MedChemExpress) (or vehicle, 0.1% DMSO in PBS). In some experiments, 30 μM PAT1inh-B01 and 10 μM DRAinh-A270 were used together. In some experiments to rule out effects of sodium-dependent phosphate transport, the loop lumen contained HEPES-buffered saline (pH 7.4, 137 mM NaCl, 4.5 mM KCl, 10 mM HEPES, 1 mM CaCl2, 0.5 mM MgCl2). The abdominal incision was closed with sutures, and mice were allowed to recover from anesthesia. Intestinal loops were removed at 0 and 30 minutes (in separate mice), and loop length and weight were measured to quantify fluid absorption. In parallel experiments, CF mice were used and loop studies were done as described above. In some experiments, loop fluid was emptied with a syringe, and pH was measured immediately using AB15 pH meter after brief centrifugation at 2000 g for 5 minutes at 4°C.
smiles,measurement,setting,value
Cc1c(Br)c(C(F)(F)F)nn1CC(=O)N1CCc2nc3cc(-c4ccccc4)[nH]n3c(=O)c2C1 [PAT1inh-B01],inhibition of slc26a4,[1],did not significantly inhibit
same,effect on ileal fluid absorption (loop weight-to-length ratio),"[2]; 30 μM luminal, 30 minutes, PBS",fully blocked
same,effect on increase of ileal loop fluid pH,"[2]; 30 minutes after injection of PBS (pH 7.4), control pH greater than 8.0",prevented
same,effect on ileal fluid absorption in absence of luminal phosphate,[2]; HEPES-buffered saline,effectively blocked
same,block of fluid absorption in ileal loops,[2]; ileal loops (abstract),> 80%
